Active and inactive are the calls of the source. How the calls were made is not given here.
Test system: CCRIS mutagenicity, Ames/micronucleus/aberration tests
Experiment: CCRIS mutagenicity studies
[1] = Test System: AMES SALMONELLA TYPHIMURIUM, Strain/Indicator: TA98, Metabolic Activation: NONE, Method: PREINCUBATION
[2] = Test System: AMES SALMONELLA TYPHIMURIUM, Strain/Indicator: TA98, Metabolic Activation: RAT, LIVER, S-9, AROCLOR 1254, Method: PREINCUBATION
[3] = Test System: AMES SALMONELLA TYPHIMURIUM, Strain/Indicator: TA100, Metabolic Activation: NONE, Method: PREINCUBATION
[4] = Test System: AMES SALMONELLA TYPHIMURIUM, Strain/Indicator: TA100, Metabolic Activation: RAT, LIVER, S-9, AROCLOR 1254, Method: PREINCUBATION
[5] = Test System: AMES SALMONELLA TYPHIMURIUM, Strain/Indicator: TA98, Metabolic Activation: NONE, Method: STANDARD PLATE
[6] = Test System: AMES SALMONELLA TYPHIMURIUM, Strain/Indicator: TA100, Metabolic Activation: NONE, Method: STANDARD PLATE

Measured: mutagenic call

O=c1c(=O)c2cccc3ccc4cccc1c4c32
inactive: [1] inactive; negative | [2] inactive; negative | [3] inactive; negative | [4] inactive; negative

CC(=O)O[C@H]1C[C@@H]2C(COC(=O)CC(C)C)=CO[C@@H](OC(=O)CC(C)C)[C@@H]2[C@@]12CO2
inactive: [5] inactive; negative | Test System: AMES SALMONELLA TYPHIMURIUM, Strain/Indicator: TA98, Metabolic Activation: RAT, LIVER, S-9, AROCLOR 1254, Method: STANDARD PLATE inactive; negative | [6] inactive; negative | Test System: AMES SALMONELLA TYPHIMURIUM, Strain/Indicator: TA1535, Metabolic Activation: NONE, Method: STANDARD PLATE inactive; negative | Test System: AMES SALMONELLA TYPHIMURIUM, Strain/Indicator: TA1535, Metabolic Activation: RAT, LIVER, S-9, AROCLOR 1254, Method: STANDARD PLATE inactive; negative | Test System: AMES SALMONELLA TYPHIMURIUM, Strain/Indicator: TA1537, Metabolic Activation: NONE, Method: STANDARD PLATE inactive; negative | Test System: AMES SALMONELLA TYPHIMURIUM, Strain/Indicator: TA1537, Metabolic Activation: RAT, LIVER, S-9, AROCLOR 1254, Method: STANDARD PLATE inactive; negative | Test System: E. COLI, Strain/Indicator: WP2, Metabolic Activation: NONE, Method: STANDARD PLATE inactive; negative
active: Test System: AMES SALMONELLA TYPHIMURIUM, Strain/Indicator: TA100, Metabolic Activation: RAT, LIVER, S-9, AROCLOR 1254, Method: STANDARD PLATE active; positive | Test System: E. COLI, Strain/Indicator: WP2, Metabolic Activation: RAT, LIVER, S-9, AROCLOR 1254, Method: STANDARD PLATE active; positive | Test System: E. COLI, Strain/Indicator: WP2 UVRA, Metabolic Activation: NONE, Method: STANDARD PLATE active; positive | Test System: E. COLI, Strain/Indicator: WP2 UVRA, Metabolic Activation: RAT, LIVER, S-9, AROCLOR 1254, Method: STANDARD PLATE active; positive

O=C(O)C(=O)C(=O)O
inactive: Test System: AMES SALMONELLA TYPHIMURIUM, Strain/Indicator: TA97, Metabolic Activation: NONE, Method: PREINCUBATION inactive; negative | Test System: AMES SALMONELLA TYPHIMURIUM, Strain/Indicator: TA97, Metabolic Activation: RAT, LIVER, S-9, PHENOBARBITAL AND 5,6-BENZOFLAVONE, Method: PREINCUBATION inactive; negative | [1] inactive; negative | Test System: AMES SALMONELLA TYPHIMURIUM, Strain/Indicator: TA98, Metabolic Activation: RAT, LIVER, S-9, PHENOBARBITAL AND 5,6-BENZOFLAVONE, Method: PREINCUBATION inactive; negative | [3] inactive; negative | Test System: AMES SALMONELLA TYPHIMURIUM, Strain/Indicator: TA100, Metabolic Activation: RAT, LIVER, S-9, PHENOBARBITAL AND 5,6-BENZOFLAVONE, Method: PREINCUBATION inactive; negative | Test System: AMES SALMONELLA TYPHIMURIUM, Strain/Indicator: TA102, Metabolic Activation: NONE, Method: PREINCUBATION inactive; negative | Test System: AMES SALMONELLA TYPHIMURIUM, Strain/Indicator: TA102, Metabolic Activation: RAT, LIVER, S-9, PHENOBARBITAL AND 5,6-BENZOFLAVONE, Method: PREINCUBATION inactive; negative | Test System: AMES SALMONELLA TYPHIMURIUM, Strain/Indicator: TA104, Metabolic Activation: NONE, Method: PREINCUBATION inactive; negative | Test System: AMES SALMONELLA TYPHIMURIUM, Strain/Indicator: TA104, Metabolic Activation: RAT, LIVER, S-9, PHENOBARBITAL AND 5,6-BENZOFLAVONE, Method: PREINCUBATION inactive; negative

O=CNc1ccc(Oc2ccc(Cl)cc2)cc1
inactive: [6] inactive; negative
active: Test System: AMES SALMONELLA TYPHIMURIUM, Strain/Indicator: TA100, Metabolic Activation: RAT, LIVER, S-9, KANECLOR 500, Method: STANDARD PLATE active; positive

O=[N+]([O-])c1cc2ccccc2c2ccccc12
inactive: Test System: AMES SALMONELLA TYPHIMURIUM, Strain/Indicator: TA98, Metabolic Activation: RAT, LIVER, S-9, PCB (10%), Method: PREINCUBATION inactive; negative | Test System: AMES SALMONELLA TYPHIMURIUM, Strain/Indicator: TA7003, Metabolic Activation: NONE, Method: PREINCUBATION inactive; negative
active: Test System: AMES SALMONELLA TYPHIMURIUM, Strain/Indicator: TA98(1,8-DNP6), Metabolic Activation: NONE, Method: STANDARD PLATE active; positive | Test System: AMES SALMONELLA TYPHIMURIUM, Strain/Indicator: TA98(NR), Metabolic Activation: NONE, Method: STANDARD PLATE active; positive | [1] active; positive | [5] active; positive | [6] active; positive | Test System: AMES SALMONELLA TYPHIMURIUM, Strain/Indicator: TA7001, Metabolic Activation: NONE, Method: PREINCUBATION active; positive | Test System: AMES SALMONELLA TYPHIMURIUM, Strain/Indicator: TA7002, Metabolic Activation: NONE, Method: PREINCUBATION active; positive | Test System: AMES SALMONELLA TYPHIMURIUM, Strain/Indicator: TA7004, Metabolic Activation: NONE, Method: PREINCUBATION active; positive | Test System: AMES SALMONELLA TYPHIMURIUM, Strain/Indicator: TA7005, Metabolic Activation: NONE, Method: PREINCUBATION active; positive | Test System: AMES SALMONELLA TYPHIMURIUM, Strain/Indicator: TA7006, Metabolic Activation: NONE, Method: PREINCUBATION active; positive | Test System: AMES SALMONELLA TYPHIMURIUM, Strain/Indicator: YG1021, Metabolic Activation: NONE, Method: STANDARD PLATE active; positive | Test System: AMES SALMONELLA TYPHIMURIUM, Strain/Indicator: YG1024, Metabolic Activation: NONE, Method: STANDARD PLATE active; positive | Test System: AMES SALMONELLA TYPHIMURIUM, Strain/Indicator: YG1026, Metabolic Activation: NONE, Method: STANDARD PLATE active; positive | Test System: AMES SALMONELLA TYPHIMURIUM, Strain/Indicator: YG1029, Metabolic Activation: NONE, Method: STANDARD PLATE active; positive

Clc1ccccc1
inactive: End Point: IN VITRO CHROMOSOMAL ABERRATIONS, Test System: CHO CELLS, Metabolic Activation: NONE inactive; negative | End Point: IN VITRO CHROMOSOMAL ABERRATIONS, Test System: CHO CELLS, Metabolic Activation: RAT, LIVER, S-9, AROCLOR 1254 inactive; negative; previous trial yielded a positive response at 150 ug/ml but no dose-re | Test System: AMES SALMONELLA TYPHIMURIUM, Strain/Indicator: TA98, Metabolic Activation: HAMSTER, LIVER, S-9, AROCLOR 1254, Method: PREINCUBATION inactive; negative | [1] inactive; negative | [2] inactive; negative | Test System: AMES SALMONELLA TYPHIMURIUM, Strain/Indicator: TA100, Metabolic Activation: HAMSTER, LIVER, S-9, AROCLOR 1254, Method: PREINCUBATION inactive; negative | [3] inactive; negative | [4] inactive; negative | Test System: AMES SALMONELLA TYPHIMURIUM, Strain/Indicator: TA1535, Metabolic Activation: HAMSTER, LIVER, S-9, AROCLOR 1254, Method: PREINCUBATION inactive; negative | Test System: AMES SALMONELLA TYPHIMURIUM, Strain/Indicator: TA1535, Metabolic Activation: NONE, Method: PREINCUBATION inactive; negative | Test System: AMES SALMONELLA TYPHIMURIUM, Strain/Indicator: TA1535, Metabolic Activation: RAT, LIVER, S-9, AROCLOR 1254, Method: PREINCUBATION inactive; negative | Test System: AMES SALMONELLA TYPHIMURIUM, Strain/Indicator: TA1537, Metabolic Activation: HAMSTER, LIVER, S-9, AROCLOR 1254, Method: PREINCUBATION inactive; negative | Test System: AMES SALMONELLA TYPHIMURIUM, Strain/Indicator: TA1537, Metabolic Activation: NONE, Method: PREINCUBATION inactive; negative | Test System: AMES SALMONELLA TYPHIMURIUM, Strain/Indicator: TA1537, Metabolic Activation: RAT, LIVER, S-9, AROCLOR 1254, Method: PREINCUBATION inactive; negative
